Target: T1, PLK4 (Homo sapiens, UniProt O00444)
T1 sequence (O00444 1-970): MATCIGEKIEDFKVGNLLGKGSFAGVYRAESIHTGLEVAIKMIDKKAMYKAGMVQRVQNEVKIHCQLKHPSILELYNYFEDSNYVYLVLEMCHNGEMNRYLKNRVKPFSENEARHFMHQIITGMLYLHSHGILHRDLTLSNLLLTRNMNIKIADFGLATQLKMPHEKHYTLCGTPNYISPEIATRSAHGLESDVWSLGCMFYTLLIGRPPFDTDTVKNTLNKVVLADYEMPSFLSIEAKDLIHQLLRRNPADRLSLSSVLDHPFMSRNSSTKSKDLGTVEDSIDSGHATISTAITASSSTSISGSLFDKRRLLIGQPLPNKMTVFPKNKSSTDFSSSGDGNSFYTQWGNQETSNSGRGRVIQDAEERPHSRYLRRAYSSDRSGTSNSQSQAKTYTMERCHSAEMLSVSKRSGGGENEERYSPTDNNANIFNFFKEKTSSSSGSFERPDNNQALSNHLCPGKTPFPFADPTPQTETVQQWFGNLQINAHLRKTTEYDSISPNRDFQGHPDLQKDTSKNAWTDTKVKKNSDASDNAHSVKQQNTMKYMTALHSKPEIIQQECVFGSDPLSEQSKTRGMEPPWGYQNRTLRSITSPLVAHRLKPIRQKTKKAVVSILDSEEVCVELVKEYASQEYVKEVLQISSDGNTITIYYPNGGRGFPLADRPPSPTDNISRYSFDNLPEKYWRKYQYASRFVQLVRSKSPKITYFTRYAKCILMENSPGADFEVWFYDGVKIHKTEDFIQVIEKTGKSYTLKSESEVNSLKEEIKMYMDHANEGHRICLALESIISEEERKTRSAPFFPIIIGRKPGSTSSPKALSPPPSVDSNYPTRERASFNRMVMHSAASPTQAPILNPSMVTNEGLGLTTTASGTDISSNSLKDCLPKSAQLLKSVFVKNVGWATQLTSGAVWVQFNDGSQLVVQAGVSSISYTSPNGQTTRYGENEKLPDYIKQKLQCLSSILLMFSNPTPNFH
Assay: Activity (IC50) of the Table 1 compounds as PLK4 inhibitors
Assay type: biochemical
Details: Table 1, IC50 class

Row | Compound | IC50
1 | COCCN(C)c1nc(Sc2ccc(NC(=O)C3CC3)cc2)nc(Nc2cc(C)[nH]n2)c1C | < 100 nM
2 | COc1c(Nc2cc(C)[nH]n2)nc(Sc2ccc(NC(=O)C3CC3)cc2)nc1N1CCOCC1 | < 100 nM
3 | COc1c(Nc2cc(C)[nH]n2)nc(Sc2ccc(NC(=O)C3CC3)cc2)nc1N1CCNCC1 | < 100 nM
4 | COc1c(Nc2cc(C)[nH]n2)nc(Sc2ccc(S(=O)(=O)Cc3ccccc3)cc2)nc1N1CCN(CCN2C(C)CCCC2C)CC1 (stereo not drawn) | < 100 nM
5 | COc1c(Nc2cc(C)[nH]n2)nc(Sc2ccc(S(=O)(=O)Cc3ccccc3)cc2)nc1N1CCN(CCN2CCC(O)CC2)CC1 | < 100 nM
6 | CC(=O)Nc1ccc(Sc2nc(Nc3cc(C)[nH]n3)c(Cl)c(N3CCC(O)CC3)n2)cc1 | < 100 nM
7 | CC(=O)Nc1ccc(Cc2nc(N3CCC(O)CC3)nc(Nc3cc(C)[nH]n3)c2Cl)cc1 | < 100 nM
8 | CCN(c1nc(Sc2ccc(NC(C)=O)cc2)nc(Nc2cc(C)[nH]n2)c1C)C(C)C | < 100 nM
9 | CC(=O)Nc1ccc(Sc2nc(Nc3cc(C)[nH]n3)c(C)c(N(CCO)C(C)C)n2)cc1 | < 100 nM
10 | CC(=O)Nc1ccc(Sc2nc(Nc3cc(C)[nH]n3)c(C)c(N3CCN(CCN4CCOCC4)CC3)n2)cc1 | < 100 nM
11 | CCOc1c(Nc2cc(C)[nH]n2)nc(Sc2ccc(NC(C)=O)cc2)nc1N1CCC(O)CC1 | < 100 nM
12 | Cc1ccc(Sc2nc(Nc3cc(C)[nH]n3)c(C)c(N(C)C(C)C)n2)cc1 | < 100 nM
13 | COCC(=O)N1CCN(c2nc(SC)nc(Nc3cc(C)[nH]n3)c2C)CC1 | < 100 nM
14 | Cc1cc(Nc2nc(Sc3ccc(NC(=O)C4CC4)cc3)nc(N3CCC(O)CC3)c2C)n[nH]1 | < 100 nM
15 | COc1c(Nc2cc(C)[nH]n2)nc(Sc2ccc(CC(=O)C3CC3)cc2)nc1N1CCC(O)CC1 | < 100 nM
16 | CC(=O)Nc1ccc(Sc2nc(Nc3cc(C)[nH]n3)c(C)c(N3C4CCC3CC(O)C4)n2)cc1 (stereo not drawn) | < 100 nM
17 | COc1c(Nc2cc(C)[nH]n2)nc(Sc2ccc(NC(C)=O)cc2)nc1N1C2CCC1CC(O)C2 (stereo not drawn) | < 100 nM
18 | COc1c(Nc2cc(C)[nH]n2)nc(Sc2ccc(S(=O)(=O)Cc3ccccc3)cc2)nc1N1CCO[C@H](C)C1 | < 100 nM
19 | COc1c(Nc2cc(C)[nH]n2)nc(Sc2ccc(S(=O)(=O)Cc3ccccc3)cc2)nc1N1CCN(C2CCN(Cc3ccccc3)CC2)CC1 | < 100 nM
20 | COc1c(Nc2cc(C)[nH]n2)nc(Sc2ccc(S(=O)(=O)Cc3ccccc3)cc2)nc1N1CCO[C@@H](C)C1 | < 100 nM
21 | COc1c(Nc2cc(C)[nH]n2)nc(Sc2ccc(S(=O)(=O)Cc3ccccc3)cc2)nc1N1CC2CCC(C1)O2 | < 100 nM
22 | COc1cccc(CS(=O)(=O)c2ccc(Sc3nc(Nc4cc(C)[nH]n4)c(OC)c(N4CCN(CCN(C)Cc5ccccc5)CC4)n3)cc2)c1 | < 100 nM
23 | COc1c(Nc2cc(C)[nH]n2)nc(Sc2ccc(S(=O)(=O)Cc3ccccc3C)cc2)nc1N1CCN(CCN(C)C)CC1 | < 100 nM
24 | COc1c(Nc2cc(C)[nH]n2)nc(Sc2ccc(S(=O)(=O)Cc3ccccc3)cc2)nc1N1CCOC[C@H]1C | < 100 nM
25 | COc1c(Nc2cc(C)[nH]n2)nc(Sc2ccc(S(=O)(=O)Cc3ccccc3)cc2)nc1N1CCOC[C@@H]1C | < 100 nM
26 | COc1c(Nc2cc(C)[nH]n2)nc(Sc2ccc(S(=O)(=O)Cc3cccc(F)c3)cc2)nc1N1CCN(CCN(C)C)CC1 | < 100 nM
27 | COc1c(Nc2cc(C)[nH]n2)nc(Sc2ccc(S(=O)(=O)Cc3cccc([N+](=O)[O-])c3F)cc2)nc1N1CCN(CCN(C)C)CC1 | < 100 nM

Row | Compound | IC50
28 | COC(=O)c1cccc(CS(=O)(=O)c2ccc(Sc3nc(Nc4cc(C)[nH]n4)c(OC)c(N4CCN(CCN(C)C)CC4)n3)cc2)c1 | < 100 nM
29 | COc1c(Nc2cc(C)[nH]n2)nc(Sc2ccc(S(=O)(=O)Cc3cccc(C(N)=O)c3)cc2)nc1N1CCN(CCN(C)C)CC1 | < 100 nM
30 | COc1c(Nc2cc(C)[nH]n2)nc(Sc2ccc(S(=O)(=O)Cc3ccccc3)cc2)nc1N1CCN(CCN2CCC2)CC1 | < 100 nM
31 | COc1c(Nc2cc(C)[nH]n2)nc(Sc2ccc(S(=O)(=O)Cc3ccccc3NC(C)=O)cc2)nc1N1CCN(CCN(C)C)CC1 | < 100 nM
32 | COc1c(Nc2cc(C)[nH]n2)nc(Sc2ccc(S(=O)(=O)Cc3ccccc3C(F)(F)F)cc2)nc1N1CCN(CCN(C)C)CC1 | < 100 nM
33 | COc1c(Nc2cc(C)[nH]n2)nc(Sc2ccc(S(=O)(=O)Cc3ccccc3N(C)C)cc2)nc1N1CCN(CCN(C)C)CC1 | < 100 nM
34 | COc1c(Nc2cc(C)[nH]n2)nc(Sc2ccc(S(=O)(=O)Cc3ccccc3-c3ccccc3)cc2)nc1N1CCN(CCN(C)C)CC1 | < 100 nM
35 | COc1c(Nc2cc(C)[nH]n2)nc(Sc2ccc(S(=O)(=O)Cc3ccccc3C#N)cc2)nc1N1CCN(CCN(C)C)CC1 | < 100 nM
36 | COc1c(Nc2cc(C)[nH]n2)nc(Sc2ccc(S(=O)(=O)Cc3cccc(C(=O)N(C)C)c3)cc2)nc1N1CCN(CCN(C)C)CC1 | < 100 nM
37 | COc1c(Nc2cc(C)[nH]n2)nc(Sc2ccc(S(=O)(=O)Cc3ccccc3C(N)=O)cc2)nc1N1CCN(CCN(C)C)CC1 | < 100 nM
38 | COc1c(Nc2cc(C)[nH]n2)nc(Sc2ccc(S(=O)(=O)Cc3ccccc3)cc2)nc1N1CCC(CCN2C3CCCC2CC3)CC1 | < 100 nM
39 | COc1c(Nc2cc(C)[nH]n2)nc(Sc2ccc(S(=O)(=O)Cc3cccc([N+](=O)[O-])c3)cc2)nc1N1CCOC[C@H]1C | < 100 nM
40 | COc1c(Nc2cc(C)[nH]n2)nc(Sc2ccc(S(=O)(=O)Cc3ccccc3)cc2)nc1N1CCN(C2CCNCC2)CC1 | < 100 nM
41 | COc1c(Nc2cc(C)[nH]n2)nc(Sc2ccc(S(=O)(=O)Cc3ccccc3)cc2Cl)nc1N1CCN(CCN(C)C)CC1 | < 100 nM
42 | COc1c(Nc2cc(C)[nH]n2)nc(Sc2ccc(S(=O)(=O)Cc3cccc([N+](=O)[O-])c3)cc2)nc1N1CCO[C@H](C)C1 | < 100 nM
43 | COc1c(Nc2cc(C)[nH]n2)nc(Sc2ccc(S(=O)(=O)Cc3cccc([N+](=O)[O-])c3)cc2)nc1N1CCO[C@@H](C)C1 | < 100 nM
44 | COc1c(Nc2cc(C)[nH]n2)nc(Sc2ccc(S(=O)(=O)Cc3cccc(NC(C)=O)c3)cc2)nc1N1CCN(CCN(C)C)CC1 | < 100 nM
45 | COc1c(Nc2cc(C)[nH]n2)nc(Sc2ccc(S(=O)(=O)Cc3cccc(N(C)C)c3)cc2)nc1N1CCN(CCN(C)C)CC1 | < 100 nM
46 | COC(=O)c1ccccc1CS(=O)(=O)c1ccc(Sc2nc(Nc3cc(C)[nH]n3)c(OC)c(N3CCN(CCN(C)C)CC3)n2)cc1 | < 100 nM
47 | COc1c(Nc2cc(C)[nH]n2)nc(Sc2ccc(S(=O)(=O)Cc3ccccc3C(=O)N(C)C)cc2)nc1N1CCN(CCN(C)C)CC1 | < 100 nM
48 | COc1c(Nc2cc(C)[nH]n2)nc(Sc2ccc(S(=O)(=O)Cc3cccc(C(=O)O)c3)cc2)nc1N1CCN(CCN(C)C)CC1 | < 100 nM
49 | COc1c(Nc2cc(C)[nH]n2)nc(Sc2ccc(S(=O)(=O)Cc3ccccc3C(=O)O)cc2)nc1N1CCN(CCN(C)C)CC1 | < 100 nM
50 | COc1ccc([N+](=O)[O-])cc1CS(=O)(=O)c1ccc(Sc2nc(Nc3cc(C)[nH]n3)c(OC)c(N3CCN(CCN(C)C)CC3)n2)cc1 | < 100 nM
51 | COc1c(CS(=O)(=O)c2ccc(Sc3nc(Nc4cc(C)[nH]n4)c(OC)c(N4CCN(CCN(C)C)CC4)n3)cc2)cccc1[N+](=O)[O-] | < 100 nM
52 | COc1c(Nc2cc(C)[nH]n2)nc(Sc2ccc(S(=O)(=O)Cc3cc([N+](=O)[O-])ccc3F)cc2)nc1N1CCN(CCN(C)C)CC1 | < 100 nM
53 | COc1c(Nc2cc(C)[nH]n2)nc(Sc2ccc(S(=O)(=O)Cc3cccc([N+](=O)[O-])c3)cc2F)nc1N1CCN(CCN(C)C)CC1 | < 100 nM
54 | COc1c(Nc2cc(C)[nH]n2)nc(Sc2ccc(S(=O)(=O)Cc3cccc([N+](=O)[O-])c3F)cc2)nc1N1CCCCC1 | < 100 nM
